Article PMC4747340, “A new class of small molecule estrogen receptor-alpha antagonists that overcome anti-estrogen resistance” (Oncotarget, 2015)
“And” between values parts separate entries of the source, which are not always exact repeats. Equal entries are not always repeated. Where two headings read alike, the source gives them in different places.

How the values were obtained:
cathepsin D [1] = test: Western blotting of cathepsin D (E2/ER-regulated gene) in MCF-7 cells; format: cell-based, human; details: for E2-stimulated expression of cathepsin D: MCF-7, E2 10 nM, 24 hr; for cathepsin D levels, compound alone: MCF-7, no E2, 24 hr
Description: (§1) MCF-7 cells in DMEM plus 5% CSS were subjected to the indicated treatment(s) for 24-hr and then harvested for Western blotting to detect cathepsin D or actin (control for loading and transfer). B., D. LCC9 cells were treated with vehicle only (DMSO) or the indicated compound for 24-hr and then harvested for Western blotting for cathepsin D and actin. The data shown in each panel are representative of three independent experiments.
(§2) After the indicated cell treatment(s), the cells were harvested, and whole-cell lysates were prepared using RIPA buffer (Santa Cruz). Equal aliquots of whole-cell protein (either 100 μg unprecipitated whole-cell lysate or one half of the precipitated protein from 500-μg whole-cell lysate) were electrophoresed on 4-12% SDS-polyacrylamide gradient gels, transferred to nitrocellulose membranes (Millipore, Bedford, MA), and blotted using primary antibodies against BRCA1 (C-20, rabbit polyclonal, 1:200 dilution; Santa Cruz), cathepsin D (R-20, goat polyclonal, 1:300; Santa Cruz), ER (F10, mouse monoclonal, 1:500; Santa Cruz), or actin (goat polyclonal, sc-1615, 1:400; Santa Cruz). The membranes were blotted with the appropriate secondary antibodies (1:1000; Santa Cruz), and the blotted proteins were visualized using an electrochemiluminescence detection system (Amersham Biosciences), with colored markers (Bio-Rad Laboratories, Hercules, CA) as molecular size standards.

LCC2 cells = test: cell proliferation assay (cell counts days 1, 3, 5), LCC2; format: cell-based, human; details: DMEM + 5% charcoal-stripped serum
Description: Starting on day 1, cells were refed daily with fresh medium (DMEM plus 5% CSS) containing the indicated agent. In panel F, the cells were refed with medium also containing ER-siRNA or control-siRNA (100 nM) at the indicated times. Wells were counted on days 1, 3, and 5 to determine cell numbers. Values are means ± SEMs of triplicate wells. The data shown in each panel are representative of three independent experiments.
Assays were performed using as the growth medium phenol red-free DMEM containing 5% charcoal-stripped serum. Briefly, proliferating cells were harvested using trypsin, counted, inoculated into 12-well dishes at 1 × 10^4 cells per well on day 0 and allowed to attach and recover for 24 hr. The cells were then treated with the indicated agents for up to five days, with daily refeeding with fresh medium and agents. Triplicate wells were counted by Coulter Counter on days 1, 3, and 5. For experiments using siRNAs, cells were treated with the indicated siRNA (100 nM) starting on day -2, and fresh siRNA was added on days 0, 2, and 4.

cathepsin D [2] = test: Western blotting of cathepsin D in LCC9 cells; format: cell-based, human; details: LCC9, 24-hr exposure
Description: as §1
as §2, with “The membranes were blotted with the appropriate secondary antibodies (1:1000; Santa Cruz), and the blotted proteins were visualized using an electrochemiluminescence detection system (Amersham Biosciences), with colored markers (Bio-Rad Laboratories, Hercules, CA) as molecular size standards.” left out

[3] = molecular target: T1, estrogen receptor-alpha (ER) (Homo sapiens, UniProt P03372); test: ER activity, ERE-TK-Luc reporter, in MCF-7 cells; format: cell-based; set-up: MCF-7 cells in 24-well dishes were transfected overnight with the ERE-TK-Luc reporter plasmid; endogenous in cells; host or cells: MCF-7; details: for IC50: read-out: IC50 for inhibition of E2-stimulated ER activity
T1 sequence (P03372 1-595): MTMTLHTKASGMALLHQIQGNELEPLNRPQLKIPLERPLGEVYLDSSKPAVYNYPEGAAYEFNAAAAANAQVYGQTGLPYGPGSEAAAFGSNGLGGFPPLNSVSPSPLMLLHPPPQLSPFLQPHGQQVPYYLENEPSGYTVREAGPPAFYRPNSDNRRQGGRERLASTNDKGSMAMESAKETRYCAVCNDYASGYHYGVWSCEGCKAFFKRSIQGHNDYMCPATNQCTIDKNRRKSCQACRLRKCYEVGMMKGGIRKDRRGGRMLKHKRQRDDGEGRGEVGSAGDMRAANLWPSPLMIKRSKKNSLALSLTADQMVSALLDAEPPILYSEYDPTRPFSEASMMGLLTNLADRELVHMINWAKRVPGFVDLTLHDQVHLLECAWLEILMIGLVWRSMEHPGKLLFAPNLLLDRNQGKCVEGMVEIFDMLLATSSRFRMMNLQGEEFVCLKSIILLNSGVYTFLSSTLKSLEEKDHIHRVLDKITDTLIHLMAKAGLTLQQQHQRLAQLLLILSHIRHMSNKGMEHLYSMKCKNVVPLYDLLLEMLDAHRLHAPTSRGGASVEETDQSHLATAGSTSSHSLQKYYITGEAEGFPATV
Description: For MCF-7, luciferase activity is expressed as a fold-change relative to the no E2 control. For LCC9, luciferase activity is expressed relative to the control without the reporter present. Values plotted are means ± SEMs of four replicate wells. The data shown in each panel are representative of three independent experiments.
The cells were then treated ± 17β-estradiol (E2, 10 nM) and with the indicated compound (@ 1 μM or 20 μM) or vehicle only (DMSO) for 24 hr and assayed for luciferase activity. Luciferase activity is expressed as a fold-change relative to the no E2 control. The data shown are representative of three independent experiments.
Subconfluent cells in 24-well dishes were transfected overnight with 0.25 μg of each indicated vector plus the ERE-TK-Luc reporter in serum-free DMEM containing Lipofectamine2000 (Life Technologies, Washington, DC). Total transfected DNA was kept constant by addition of control vector. The cells were washed, incubated in phenol red-free DMEM containing 5% charcoal-stripped serum (obtained from the Tissue Culture Shared Resource) (0.2 ml/well) ± E2 (10 nM) ± the indicated compound for 24-hr, and harvested for luciferase assays. For each assay condition was tested in quadrupicate. To monitor the transfection efficiency, cultures were co-transfected with plasmid pRSV-β-gal (Promega, Madison, WI) to visualize transfected cells by X-gal staining.

[4] = MTT assay of cell viability; format: cell-based; details: human, MCF-7 cells, 24-hr exposure, relative to untreated control
Description: Figure 3 Cytotoxicity and specificity of compounds A., B. Subconfluent proliferating cells were incubated with the indicated compound at the indicated concentration for 24-hr and then harvested for MTT dye reduction assays. Cell viability values (relative to untreated control cells) are means ± SEMs of 10 replicate wells. C., D. Subconfuent proliferating T47D cells were transfected overnight with the MMTV-Luc reporter (0.25 μg per well in 24-well dishes), washed, and allowed to recover for several hr in fresh medium. The cells were then treated with a synthetic progestin (R5020, 10 nM) plus the indicated compound at the indicated concentration for 24 hr and then harvested for luciferase assays. Luciferase activity is expressed relative to the MMTV-Luc control (no agents added) (panel A) or as a percentage of the +R5020 positive control (panel B). Values are means ± SEMs of four replicate wells. The data shown in each panel are representative of three independent experiments.
Assays were performed as described before. After the indicated treatment, cells in 96-well dishes were solubilized and assayed for MTT dye reduction. Cell viability was expressed as the amount of dye reduction relative to untreated control cells. and calculated as means ± SEMs for 10 replicate wells.

O=C(c1cc(Br)ccc1O)c1cc(Br)ccc1O [4631-P/1]
E2-stimulated expression of cathepsin D (cathepsin D [1]): blocked E2-stimulated expression of cathepsin D
cathepsin D levels, compound alone (cathepsin D [1]): little or no effect
proliferation of Tamoxifen-resistant LCC2 cells (LCC2 cells): inhibited ER-dependent cell proliferation
constitutive cathepsin D levels in LCC9 (cathepsin D [2]): decreased
inhibition at 1 µM ([3]; MCF7, MCF-7, E2 10 nM, compound 1 μM, 24 hr, read-out: inhibition of E2-stimulated ER activity at 1 μM): ≥ 50%
IC50 ([3]; MCF-7, E2 10 nM, 24 hr): ≤ 1 µM
viability at 24 h, 1 µM [4]: 100%
viability at 24 h, 20 µM [4]: > 90%

O=C(CC(c1ccccc1)N1CCCCC1)c1ccccc1 (stereo not shown) [35446-L/1, 1,3-diphenyl-3-(piperidin-1-yl)propan-1-one]
E2-stimulated expression of cathepsin D (cathepsin D [1]): blocked E2-stimulated expression of cathepsin D
cathepsin D levels, compound alone (cathepsin D [1]): little or no effect
proliferation of Tamoxifen-resistant LCC2 cells (LCC2 cells): inhibited ER-dependent cell proliferation
constitutive cathepsin D levels in LCC9 (cathepsin D [2]): decreased
inhibition at 1 µM ([3]; MCF7, read-out: inhibition of E2-stimulated ER activity at 1 μM): ≥ 50%
IC50 ([3]; MCF-7, E2 10 nM, 24 hr): ≤ 1 µM and 0.8 µM
viability at 24 h, 1 µM [4]: 100%
viability at 24 h, 20 µM [4]: > 90%
